The subject of assay [1] is ARPE-19 cells. Kind of assay: Cell death protective effect in retinal epithelial cells against Erastin and RSL3 (LDH). The assay is classed as cell-based, human. To be noted: 24 h. How it is done: In order to identify the protective effect on retinal epithelial cells, ARPE-19 cells were divided into 96-well plates by 1×10^4 and cultured for 18 to 24 hours. The compounds of Examples were diluted to final concentrations of 0.03 and 0.3 μM, treated in each well, and incubated for 20 minutes. Erastin, and RSL3 were treated to have final concentrations of 10 μM, and 0.3 μM, respectively, and cultured for 24 hours. In order to identify the protective effect of each compound, the degree of LDH extracellular secretion was measured using cytotoxicity LDH assay kit [Dojindo; CK12]. Briefly, at the time when the treatment of the cells with Erastin, and RSL3 for 24 hours is completed, the supernatants containing the cells are taken by 70 μL and transferred to a new 96-well plate. The assay buffer included in the kit is added in an amount of 70 μL/well (the same amount as the sample) thereto, and then the plate is wrapped with a foil and the reaction is performed at room temperature for 15 minutes.

The subject of assay [2] is NIH/3T3 cells. In words: Cell death protective effect in fibroblasts against Erastin, glutamate and RSL3 (LDH). In kind it is cell-based, mouse. The settings on record: 24 h. How it is done:
(§1) In order to identify the protective effect on fibroblasts, NIH/3T3 cells were divided into 96-well plates by 8×10^3 and cultured for 18 to 24 hours. The compounds of Examples were diluted to final concentrations of 0.1 and 1 μM, treated in each well, and incubated for 15 to 20 minutes. Erastin, glutamate, and RSL3 were treated to have final concentrations of 3 μM, 30 mM, and 3 μM, respectively, and cultured for 24 hours. In order to identify the protective effect of each compound, the degree of LDH extracellular secretion was measured using cytotoxicity LDH assay kit [Dojindo; CK12]. Briefly, at the time when the treatment of the cells with Erastin, glutamate, and RSL3 for 24 hours is completed, the supernatants containing the cells are taken by 70 μL and transferred to a new 96-well plate. The assay buffer included in the kit is added in an amount of 70 μL/well (the same amount as the sample) thereto, and then the plate is wrapped with a foil and the reaction is performed at room temperature for 15 minutes.

Assay [3] relates to NRK-49F cells. In words: Cell death protective effect in renal fibroblasts against Erastin, glutamate and RSL3 (LDH). The assay is classed as cell-based, rat. To be noted: 24 h. Here is the method:
as §1, with “effect on renal fibroblasts, NRK-49F” for “effect on fibroblasts, NIH/3T3”, “renal fibroblasts, NRK-49F cells were” for “on fibroblasts, NIH/3T3 cells were”, “plates by 1×10^4 and cultured” for “plates by 8×10^3 and cultured”, “0.1 and 1. μM, treated” for “0.1 and 1 μM, treated”, “3 μM, 75 mM, and” for “3 μM, 30 mM, and”

Assay [4] concerns PC-12 cells. In words: Cell death protective effect in adrenal cells against Erastin, glutamate and RSL3 (LDH). In kind it is cell-based, rat. The settings on record: 24 h. How it is done: In order to identify the protective effect on adrenal cells, PC-12 cells were divided into 96-well plates by 1×10^4 and cultured for 18 to 24 hours. […] Erastin, glutamate, and RSL3 were treated to have final concentrations of 1 μM, 10 mM, and 0.3 μM, respectively, and cultured for 24 hours. In order to identify the protective effect of each compound, the degree of LDH extracellular secretion was measured using cytotoxicity LDH assay kit [Dojindo; CK12]. Briefly, at the time when the treatment of the cells with Erastin, glutamate, and RSL3 for 24 hours is completed, the supernatants containing the cells are taken by 70 μL and transferred to a new 96-well plate. The assay buffer included in the kit is added in an amount of 70 μL/well (the same amount as the sample) thereto, and then the plate is wrapped with a foil and the reaction is performed at room temperature for 15 minutes.

Assay [5] has as its system H9C2 cells. In words: Cell protection effect against t-BHP in heart cells (LDH release). The settings on record: H9C2, t-BHP 40 μM, 2 hours. In kind it is cell-based. Here is the method:
In order to identify the protective effect with regard to heart cells, H9C2 cells were divided into 96-well plates by 1.5×10^4, and cultured for 24 hours. The respective wells were treated with compounds of the examples 3× serial diluted to final concentrations of […], then cultured for 15 to 20 minutes. After treating with t-BHP with a final concentration of 40 μM, culturing was performed for 2 hours. In order to identify the protective effect of each compound, a Cytotoxicity LDH assay kit [Dojindo; CK12] was used to measure the degree of extracellular secretion of LDH. To describe briefly, at the time point 2-hour treatment of the cells with t-BHIP was completed, 100 μL each of the supernatant in which the cells were placed was collected and moved to a new 96-well plate. 100 μL/well of the assay buffer included in the kit (same amount as the sample) was added, followed by wrapping with foil and reacting for 30 minutes at room temperature. Observing the change in color of the sample, 50 μL/well of stop solution was added, then an iD3 spectrometer was used to measure absorbance at 490 nm and calculate the EC50 values. The EC50 of the compounds of the examples is preferably no more than 1.0 μM, and more preferably no more than 0.3 μM.
In general terms: LDH leaks from cells whose membrane has failed.

The mark [6] stands for this setting: ARPE-19, Erastin, 10 μM, compound 0.03 μM.
Setting [7] is: ARPE-19, Erastin, 10 μM, compound 0.3 μM.
Setting [8] is: ARPE-19, RSL3, 0.3 μM, compound 0.03 μM (first RSL3 column).
Setting [9] is: ARPE-19, RSL3, 0.3 μM, compound 0.03 μM (second RSL3 column).
Where [10] appears, read: NIH/3T3, Erastin, 3 μM, compound 0.1 μM.
Setting [11] is: NIH/3T3, Erastin, 3 μM, compound 1.0 μM.
Setting [12] is: NIH/3T3, Glutamate, 30 mM, compound 0.1 μM.
Where [13] appears, read: NIH/3T3, Glutamate, 30 mM, compound 1.0 μM.
Where [14] appears, read: NIH/3T3, RSL3, 3 μM, compound 0.1 μM.
Where [15] appears, read: NIH/3T3, RSL3, 3 μM, compound 1.0 μM.
The mark [16] stands for this setting: Glutamate, 75 mM, compound 0.1 μM.
[17] abbreviates: Glutamate, 75 mM, compound 1.0 μM.
[18] abbreviates: PC-12, Erastin, 1 μM, compound 0.1 μM.
The mark [19] stands for this setting: PC-12, Erastin, 1 μM, compound 1.0 μM.
The mark [20] stands for this setting: PC-12, Glutamate, 10 mM, compound 0.1 μM.
Setting [21] is: PC-12, Glutamate, 10 mM, compound 1.0 μM.
The mark [22] stands for this setting: PC-12, RSL3, 0.3 μM, compound 0.1 μM.
Where [23] appears, read: PC-12, RSL3, 0.3 μM, compound 1.0 μM.

The structures appear in SMILES notation.

As usually defined, the EC50 is the concentration that produces a half-maximal response. Read a low EC50 as higher potency in that assay. Take `COCc1cc(NC2CCOCC2)c2[nH]c(-c3ccccc3)cc2c1` [Example 1, 5-(methoxymethyl)-2-phenyl-N-tetrahydropyran-4-yl-1H-indol-7-amine]: the “inhibition (%)” value came to 100% in assay [1] (setting [6]); 100% in assay [1] (setting [7]); 100% in assay [1] (setting [8]); 100% in assay [1] (setting [9]); 99% in assay [2] (setting [10]); 99% in assay [2] (setting [11]). In addition, the “inhibition (%)” value is on record as 98% in assay [2] (setting [12]); 97% in assay [2] (setting [13]); 98% in assay [2] (setting [14]); 99% in assay [2] (setting [15]); 96% in assay [3] (Erastin, 3 μM, compound 0.1 μM); 95% in assay [3] (Erastin, 3 μM, compound 1.0 μM). Moreover, the “inhibition (%)” value is recorded as 100% in assay [3] (setting [16]); 100% in assay [3] (setting [17]); 98% in assay [3] (RSL3, 3 μM, compound 0.1 μM); 98% in assay [3] (RSL3, 3 μM, compound 1.0 μM); 100% in assay [4] (setting [18]); 100% in assay [4] (setting [19]). Moreover, the “inhibition (%)” value in assay [4] (setting [20]) worked out at 77%; in assay [4] (setting [21]), 100%; in assay [4] (setting [22]), 100%; in assay [4] (setting [23]), 100%. Further, the EC50 in assay [5] was at most 0.3 µM.

As for `COCc1cc(NC2CCCC2)c2[nH]c(-c3ccccc3)cc2c1` [Example 2, N-cyclopentyl-5-(methoxymethyl)-2-phenyl-1H-indol-7-amine], the “inhibition (%)” value in assay [1] (setting [6]) was 100%; in assay [1] (setting [7]), 100%; in assay [1] (setting [8]) it was 100%; in assay [1] (setting [9]) it was 100%; in assay [2] (setting [10]), 99%; in assay [2] (setting [11]), 100%. In addition, the “inhibition (%)” value was found to be 98% in assay [2] (setting [12]); 99% in assay [2] (setting [13]); 100% in assay [2] (setting [14]); 100% in assay [2] (setting [15]); 97% in assay [3] (Erastin, 3 μM, compound 0.1 μM); 94% in assay [3] (Erastin, 3 μM, compound 1.0 μM). The “inhibition (%)” value in assay [3] (setting [16]) is 100%; in assay [3] (setting [17]), 100%; in assay [3] (RSL3, 3 μM, compound 0.1 μM) it was 98%; in assay [3] (RSL3, 3 μM, compound 1.0 μM), 97%; in assay [4] (setting [18]) it was 100%; in assay [4] (setting [19]), 100%. The “inhibition (%)” value was 96% in assay [4] (setting [20]), 100% in assay [4] (setting [21]), 100% in assay [4] (setting [22]) and 100% in assay [4] (setting [23]). In assay [5], this molecule yielded an EC50 of at most 0.3 µM.

As for `COCc1cc(NC2CC[S+]([O-])CC2)c2[nH]c(-c3ccccc3)cc2c1` (stereo not shown) [Example 14, 5-(methoxymethyl)-N-(1-oxothian-4-yl)-2-phenyl-1H-indol-7-amine], the “inhibition (%)” value in assay [1] (setting [6]) stood at 100%; in assay [1] (setting [7]) it was 98%; in assay [1] (setting [8]) it was 82%; in assay [1] (setting [9]), 98%; in assay [2] (setting [10]), 38%; in assay [2] (setting [11]), 100%. Moreover, the “inhibition (%)” value was found to be 97% in assay [2] (setting [12]); 96% in assay [2] (setting [13]); 100% in assay [2] (setting [14]); 100% in assay [2] (setting [15]); 96% in assay [3] (Erastin, 3 μM, compound 0.1 μM); 93% in assay [3] (Erastin, 3 μM, compound 1.0 μM). Moreover, the “inhibition (%)” value is 100% in assay [3] (setting [16]); 100% in assay [3] (setting [17]); 97% in assay [3] (RSL3, 3 μM, compound 0.1 μM); 97% in assay [3] (RSL3, 3 μM, compound 1.0 μM); 100% in assay [4] (setting [18]); 100% in assay [4] (setting [19]). For the same molecule, the “inhibition (%)” value in assay [4] (setting [20]) is 45%; in assay [4] (setting [21]), 100%; in assay [4] (setting [22]), 100%; in assay [4] (setting [23]), 100%. This molecule also showed an EC50 in assay [5] of at most 0.3 µM.

Take `CCOC(=O)c1ccc(NC2CCCCC2)c(N)c1` [Ferrostatin-1, reference compound]: the “inhibition (%)” value in assay [1] (setting [6]) is given as 96%; in assay [1] (setting [7]), 100%; in assay [1] (setting [8]), 68%; in assay [1] (setting [9]), 100%; in assay [2] (setting [10]), 0%; in assay [2] (setting [11]), 96%. For the same molecule, the “inhibition (%)” value worked out at 98% in assay [2] (setting [12]); 98% in assay [2] (setting [13]); 100% in assay [2] (setting [14]); 100% in assay [2] (setting [15]); 98% in assay [3] (Erastin, 3 μM, compound 0.1 μM); 97% in assay [3] (Erastin, 3 μM, compound 1.0 μM). The “inhibition (%)” value in assay [3] (setting [16]) is reported as 90%; in assay [3] (setting [17]), 100%; in assay [3] (RSL3, 3 μM, compound 0.1 μM), 97%; in assay [3] (RSL3, 3 μM, compound 1.0 μM) it was 97%; in assay [4] (setting [18]), 100%; in assay [4] (setting [19]), 100%. Besides, the “inhibition (%)” value in assay [4] (setting [20]) came to 29%; in assay [4] (setting [21]), 99%; in assay [4] (setting [22]), 100%; in assay [4] (setting [23]), 100%.

(Values after patent US20250289785A1, “INDOLE DERIVATIVE, METHOD FOR PREPARING SAME, AND USE THEREOF” (MITOIMMUNE THERAPEUTICS INC., priority 2021, published 2025).)
